In the NIST ThermoML archive (doi:10.1016/j.jct.2019.05.015):
Where “and” joins values, the source holds several entries; their conditions need not be identical. Equal values may be shown once. Numbers after ± are expanded uncertainties.

Tests used:
[1] = molar heat capacity at constant pressure; settings: 101.33 kPa, DSC
[2] = for Normal melting temperature: Crystal, DTA; for Glass transition temperature: DSC
[3] = Molar enthalpy of transition or fusion; settings: Crystal; DSC

## Nc1cccc(N)c1 [1,3-benzenediamine]
[1]; 223 K, Crystal
  molar heat capacity at constant pressure: 108.9 ± 5 J/K/mol
[1]; 243 K, Crystal
  molar heat capacity at constant pressure: 121.4 ± 5.6 J/K/mol
[1]; 253 K, Metastable liquid
  molar heat capacity at constant pressure: 207.5 ± 8.1 J/K/mol
[1]; 263 K, Crystal
  molar heat capacity at constant pressure: 133.8 ± 6 J/K/mol
[1]; 273 K, Metastable liquid
  molar heat capacity at constant pressure: 213.4 ± 8.3 J/K/mol
[1]; 283 K, Crystal
  molar heat capacity at constant pressure: 146.2 ± 6.5 J/K/mol
[1]; 293 K, Metastable liquid
  molar heat capacity at constant pressure: 219.3 ± 8.5 J/K/mol
[1]; 303 K, Crystal
  molar heat capacity at constant pressure: 158.7 ± 7 J/K/mol
[1]; 313 K, Metastable liquid
  molar heat capacity at constant pressure: 225.2 ± 8.7 J/K/mol
[1]; 323 K, Metastable liquid
  molar heat capacity at constant pressure: 229.7 ± 8.9 J/K/mol
[1]; 333 K, Metastable liquid
  molar heat capacity at constant pressure: 231.2 ± 9 J/K/mol
[1]; 343 K, Liquid
  molar heat capacity at constant pressure: 234 ± 9.1 J/K/mol
[1]; 353 K, Liquid
  molar heat capacity at constant pressure: 237.1 ± 9.2 J/K/mol
[1]; 363 K, Liquid
  molar heat capacity at constant pressure: 240.2 ± 9.3 J/K/mol
[2]
  Normal melting temperature: 63.0 ± 0.4 °C
  Glass transition temperature: -29 ± 2 °C
[3]
  Molar enthalpy of transition or fusion: 3.71 ± 0.141 kcal/mol

## Oc1cccc(O)c1 [1,3-benzenediol]
[1]; 233 K, Crystal
  molar heat capacity at constant pressure: 103.9 ± 4.2 J/K/mol
[1]; 253 K, Crystal
  molar heat capacity at constant pressure: 114.4 ± 4.6 J/K/mol
[1]; 273 K, Crystal
  molar heat capacity at constant pressure: 124.9 ± 4.9 J/K/mol
[1]; 293 K, Crystal
  molar heat capacity at constant pressure: 135.3 ± 5.3 J/K/mol
[1]; 303 K, Metastable liquid
  molar heat capacity at constant pressure: 237.2 ± 9.7 J/K/mol
[1]; 313 K, Crystal
  molar heat capacity at constant pressure: 145.8 ± 5.7 J/K/mol
[1]; 323 K, Metastable liquid
  molar heat capacity at constant pressure: 245.8 ± 10 J/K/mol
[1]; 333 K, Crystal
  molar heat capacity at constant pressure: 156.3 ± 6.1 J/K/mol
[1]; 343 K, Metastable liquid
  molar heat capacity at constant pressure: 254.3 ± 10 J/K/mol
[1]; 363 K, Metastable liquid
  molar heat capacity at constant pressure: 262.9 ± 11 J/K/mol
[2]
  Normal melting temperature: 109.1 ± 0.4 °C
[3]
  Molar enthalpy of transition or fusion: 4.82 ± 0.112 kcal/mol

## Oc1ccc2c(O)cccc2c1 [1,6-dihydroxynaphthalene]
[1]; 218 K, Glass
  molar heat capacity at constant pressure: 131.4 ± 6.5 J/K/mol
[1]; 238 K, Glass
  molar heat capacity at constant pressure: 147.4 ± 7.1 J/K/mol
[1]; 243 K, Crystal
  molar heat capacity at constant pressure: 149.1 ± 6.1 J/K/mol
[1]; 258 K, Glass
  molar heat capacity at constant pressure: 163.5 ± 7.7 J/K/mol
[1]; 263 K, Crystal
  molar heat capacity at constant pressure: 161.4 ± 6.6 J/K/mol
[1]; 283 K, Crystal
  molar heat capacity at constant pressure: 173.7 ± 7.1 J/K/mol
[1]; 303 K, Crystal
  molar heat capacity at constant pressure: 186 ± 7.6 J/K/mol
[1]; 323 K, Crystal
  molar heat capacity at constant pressure: 197.9 ± 7.7 J/K/mol and 198.4 ± 8 J/K/mol
[1]; 323 K, Metastable liquid
  molar heat capacity at constant pressure: 311.2 ± 14 J/K/mol
[1]; 343 K, Crystal
  molar heat capacity at constant pressure: 210.6 ± 8.2 J/K/mol and 210.7 ± 8.4 J/K/mol
[1]; 343 K, Metastable liquid
  molar heat capacity at constant pressure: 315.6 ± 14 J/K/mol
[1]; 363 K, Crystal
  molar heat capacity at constant pressure: 223.2 ± 8.6 J/K/mol and 223 ± 8.8 J/K/mol
[1]; 363 K, Metastable liquid
  molar heat capacity at constant pressure: 319.9 ± 15 J/K/mol
[1]; 383 K, Crystal
  molar heat capacity at constant pressure: 235.9 ± 9.1 J/K/mol
[1]; 383 K, Metastable liquid
  molar heat capacity at constant pressure: 324.3 ± 15 J/K/mol
[1]; 403 K, Metastable liquid
  molar heat capacity at constant pressure: 328.7 ± 15 J/K/mol
[2]
  Normal melting temperature: 137.1 ± 0.4 °C
  Glass transition temperature: 32 ± 2 °C
[3]
  Molar enthalpy of transition or fusion: 6.17 ± 0.186 kcal/mol

## Nc1cccc2ccccc12 [1-naphthalenamine]
[2]
  Normal melting temperature: 48.2 ± 0.4 °C
[3]
  Molar enthalpy of transition or fusion: 3.46 ± 0.11 kcal/mol

## Oc1cccc2ccccc12 [1-naphthol]
[2]
  Normal melting temperature: 94.8 ± 0.4 °C
[3]
  Molar enthalpy of transition or fusion: 5.23 ± 0.12 kcal/mol

## Oc1ccc2ccccc2c1 [2-hydroxynaphthalene]
[2]
  Normal melting temperature: 121.2 ± 0.4 °C
[3]
  Molar enthalpy of transition or fusion: 5.35 ± 0.139 kcal/mol

## Nc1ccc2ccccc2c1 [2-naphthalenamine]
[2]
  Normal melting temperature: 109.5 ± 0.4 °C
[3]
  Molar enthalpy of transition or fusion: 5.32 ± 0.134 kcal/mol

## Nc1ccc(Cl)cc1 [4-chlorobenzenamine]
[2]
  Normal melting temperature: 70 ± 0.4 °C
[3]
  Molar enthalpy of transition or fusion: 4.71 ± 0.196 kcal/mol

## Cc1ccc(O)cc1 [4-methylphenol]
[2]
  Normal melting temperature: 34.8 ± 0.4 °C
[3]
  Molar enthalpy of transition or fusion: 2.81 ± 0.108 kcal/mol
